According to patent US6710075B2, “Therapeutic compounds and methods” (The Government of the State of Sarawak, Malaysia, priority 2000, dated 2004):
Where two headings read alike, the source gives them in different places.

Legend:
A549 cells [1] = assay: Reversibility of cytostatic effect in A549 cells after removal of compound; assay type: cell-based, human; conditions: A549, 10 nM for 5 days, then 4 days without compound
Procedure: A549 cells were seeded at ˜10,000 cells/well and cultured in the presence of the indicted concentrations of Compound A or paclitaxel and the viable cell numbers determined by haemocytometer counting of trypan blue stained cells at the various times. On day 5 some of the cells were washed, resuspended in fresh medium lacking the various treatments and cultured for another 4 days prior to counting.
The reversibility of the effects of Compound A was determined. For this, A549 cells remained untreated or were cultured in the presence of various concentrations of Compound A or with paclitaxel for 5 days prior to removal of the compounds and the cells cultured for a further 4 days prior to determining cell number (FIG. 6). […] The effects of treatments which were deleterious to the cells, such as higher concentrations of Compound A or the presence of paclitaxel, were not reversed upon their removal.

A549 cells [2] = assay: Effect on cell cycle arrest and cell death induced by anti-cancer agents, DNA content analysis; assay type: cell-based
Procedure: A549 cells in 6 well plates were cultured for 3 days in the presence or absence of 10 nM Compound A together with 0.1 μM camptothecin, 10 μM vinblastin, 1 μM paclitaxel or 1 μM staurosporine as indicated. The cells were then collected and fixed in 70% ethanol prior to staining with propidium iodide and DNA content determined by flow cytometry. The numbers indicate the % of cells in the various cell cycle phases relative to all cells with ≧2N DNA content and also the % dead cells (ie. subdiploid ≦2N cells) to the left of the dotted marker that arose during the culture period.
This was examined in more detail using DNA content analysis to specifically measure cell cycle progression and cell death. In this experiment in addition to camptothecin and paclitaxel cells were also treated with vinblastin (another microtubule inhibitor) (Sorger et al., 1997, supra) and staurosporine (a kinase inhibitor) (Gescher, Crit Rev Oncol Hematol., 2000, 34(2):127-35).

THP-1 cells [3] = assay: DNA synthesis, [14C]-thymidine uptake, THP-1 cells; assay type: cell-based, human; conditions: 48 hours
Text: (§1) (a) Compounds A and B were identified from a bark sample of Aglaia leptantha through their ability to inhibit production of Tumour Necrosis Factor-α (TNF-α) by THP-1 human promonocytic leukemia cells (Tsuchiya, et al, Int. J. Cancer, 1980, 26(2):171-6) activated with lipopolysaccharide (LPS). Table 4 summarises the results comparing the activity of Compounds A and B for inhibition of TNF-α production to their effects on general cell metabolism measured using WST-1 reduction, DNA synthesis and protein synthesis assays for THP-1 cells. […] For comparison, the effects of Compounds A and B on A549 lung epithelial carcinoma cells (Leiber et al, Int. J. Cancer, 1976, 17(1)-62-70) were also measured and the data is also included in Table 4.

A549 cells [4] = assay: Acute general protein biosynthesis inhibition, [14C] leucine incorporation, A549 cells; assay type: cell-based, human; conditions: 1 hour pretreatment + 2 hours label, read-out: IC50 Protein synthesis
A549 cells [5] = assay: Relative cell size by forward light scatter (flow cytometry); assay type: cell-based, human; conditions: for % increase in mean cell volume: six days
Procedure: It is well known that cell proliferation and cell growth reflected as increased mass of individual cells are biochemically separable processes (Pardee, Science, 1989, 246:603-8). Although at certain concentrations Compound A can inhibit cell proliferation without overt cytotoxicity it was also evaluated whether Compound A also affected cell growth. For these experiments A549 cells were treated with various non-cytotoxic doses of Compound A up to 10 nM and the relative cell size determined after 6 days of culture by measuring forward light scatter using a flow cytometer. […] This occurred only at concentrations which are cytostatic for this cell type.

THP-1 cells [6] = assay: Protein synthesis, [14C]-leucine uptake, THP-1 cells; assay type: cell-based, human; conditions: 48 hours
Text: as §1

SF268 [7] = assay: Cytostatic activity, relative cell number by YOYO-1 DNA dye; assay type: cell-based; conditions: Homo sapiens, SF-268, 72 h; SF268, brain; read-out: GI50 (3 day cultures)
Procedure: (§2) (b) Compound A was assessed for cytotoxic and cytostatic activity against a panel of cell lines derived from a variety of human tumour types in addition to THP-1 and A549 cells (Table 5). These included K562 leukemic cells (Lozzio and Lozzio, 1975, Blood 45:321-34), PC3 prostate tumour cells (Kaighn et al., 1979, Invest. Urol. 17:16-23) and SF268 glioblastoma cells (Westphal et al, 1985, Biochem. Biophys. Res. Commun., 132:284-9). […] However, the cytotoxic potency of Compound A increased dramatically after 6 days of culture for the K562, A549 and SF268 cells.

PC3 [8] = assay: as above; assay type: cell-based; conditions: Homo sapiens, PC-3, 72 h; PC3, prostate; read-out: GI50 (3 day cultures)
Procedure: as §2

K562 [9] = assay: as above; assay type: cell-based; conditions: Homo sapiens, 72 h; K562, leukemia; read-out: GI50 (3 day cultures)
Procedure: as §2

THP-1 = assay: Cytotoxic activity, sub-diploid DNA content by flow cytometry (propidium iodide); assay type: cell-based, human; conditions: Homo sapiens, THP-1, 72 h, THP-1, 3 days; read-out: LC50 (3 day cultures)
Procedure: as §2

A549 = assay: as above; assay type: cell-based, human
Procedure: as §2

SF268 [10] = assay: as above; assay type: cell-based, human; conditions: Homo sapiens, SF-268, 72 h, SF268, 3 days; read-out: LC50 (3 day cultures)
Procedure: as §2

PC3 [11] = assay: as above; assay type: cell-based, human; conditions: Homo sapiens
Procedure: as §2

K562 [12] = assay: as above; assay type: cell-based, human
Procedure: as §2

COC(=O)[C@H]1[C@@H](O)[C@@]2(O)c3c(OC)cc(OC4OC(C(O)CO)COC4OC)cc3O[C@@]2(c2ccc(OC)cc2)[C@@H]1c1ccccc1 (single isomer, unassigned) [Compound A]
cell number after removal of compound (A549 cells [1]): over a five-fold increase in cell number | population doublings after removal of compound (A549 cells [1]): 2-3 | cell cycle distribution and cell death (A549 cells [2]; A549, 10 nM Compound A alone, three days): a minor decrease in cells in G0/G1 with a slight increase in G2/M phase cells with no detectable increase in cell death | effect on cytotoxicity of staurosporine (A549 cells [2]; A549, 10 nM Compound A with 1 μM staurosporine, 3 days): little effect on the cytotoxic effects of staurosporine | effect on cell cycle arrest and cytotoxicity of camptothecin, vinblastin and paclitaxel (A549 cells [2]; A549, 10 nM Compound A, 3 days): prevented their characteristic cell cycle arrest and significantly inhibited their cytotoxic effects | IC50 (THP-1 cells [3]): 0.015 µM | IC50 (A549 cells [4]; A549 cells): 0.032 µM | IC50 (A549 cells [4]; Homo sapiens, A549, A549 cells): ~0.03 µM | % increase in mean cell volume (A549 cells [5]; A549, 2.5 nM): 10.4% | % increase in mean cell volume (A549 cells [5]; A549, 5.0 nM): 10.7% | % increase in mean cell volume (A549 cells [5]; A549, 10.0 nM): 22.4% | increase in the mean forward scatter (A549 cells [5]; A549, non-cytotoxic doses up to 10 nM, 6 days): over 20% | IC50 (THP-1 cells [6]): 0.06 µM | GI50 (SF268 [7]): 0.003 µM | GI50 (PC3 [8]): 0.005 µM | GI50 (K562 [9]): 0.001 µM | CC50 (THP-1): 0.036 µM | CC50 (A549; A549, 6 days, read-out: LC50 (6 day cultures)): 0.015 µM | CC50 (A549; Homo sapiens, A549, 72 h, A549, 3 days, read-out: LC50 (3 day cultures)): 0.914 µM | CC50 (A549; Homo sapiens, A549, 144 h, A549, 6 days, read-out: LC50 (6 day cultures)): 0.021 µM | CC50 (SF268 [10]): 0.461 µM | CC50 (PC3 [11]; PC-3, 72 h, PC3, 3 days, read-out: LC50 (3 day cultures)): 0.018 µM | CC50 (PC3 [11]; PC-3, 144 h, PC3, 6 days, read-out: LC50 (6 day cultures)): 0.012 µM | CC50 (K562 [12]; Homo sapiens, K562, 72 h, K562, 3 days, read-out: LC50 (3 day cultures)): > 1 µM | CC50 (K562 [12]; Homo sapiens, K562, 144 h, K562, 6 days, read-out: LC50 (6 day cultures)): 0.01 µM | CC50 (K562 [12]; K562, 6 days, read-out: LC50 (6 day cultures)): 0.012 µM
